Results reported in article PMC12373499 (Nature Metabolism, 2025).
Values joined by “and” are separate entries in the source; they are usually repeats but may differ in a detail not shown here. Identical values can stand only once. Like-named read-outs stand apart in the source and are kept apart here. One block for each molecule: values may come before it. *1 amine or outer side, *2 acyl side, *3 side chain or, on linkers, in order; H or OH if unused. Where a SMILES comes first, the peptide text is derived from it. Side-chain parts run from the residue outwards. [ ]: non-standard residue; d: D form. The star is where a group is joined. X1 = CN1C(=CC=CC=CC2=[N+](CCCCCC(=O)NCCN3C(=O)CC(*)C3=O)c3ccccc3C2(C)C)C(C)(C)c2ccccc21; X2 = CN1C(=CC=CC2=[N+](CCCCCC(=O)NCCN3C(=O)CC(*)C3=O)c3ccccc3C2(C)C)C(C)(C)c2ccccc21; C20 diacid = O=C(O)CCCCCCCCCCCCCCCCCCC(=O)*; γGlu = O=C(O)[C@H](CCC(=O)[*:2])N[*:1]; AEEA = NCCOCCOCC(=O)O; Aib = CC(C)(N)C(=O)O

Assays:
[1] = molecular target: Nluc-tagged human GIPR (human) (UniProt P48546); assay: FRET or BRET
[2] = molecular target: Nluc-tagged human GLP1R (human) (UniProt P43220); assay: FRET or BRET
Nluc-tagged human GLP1R (human), sequence (P43220 24-463): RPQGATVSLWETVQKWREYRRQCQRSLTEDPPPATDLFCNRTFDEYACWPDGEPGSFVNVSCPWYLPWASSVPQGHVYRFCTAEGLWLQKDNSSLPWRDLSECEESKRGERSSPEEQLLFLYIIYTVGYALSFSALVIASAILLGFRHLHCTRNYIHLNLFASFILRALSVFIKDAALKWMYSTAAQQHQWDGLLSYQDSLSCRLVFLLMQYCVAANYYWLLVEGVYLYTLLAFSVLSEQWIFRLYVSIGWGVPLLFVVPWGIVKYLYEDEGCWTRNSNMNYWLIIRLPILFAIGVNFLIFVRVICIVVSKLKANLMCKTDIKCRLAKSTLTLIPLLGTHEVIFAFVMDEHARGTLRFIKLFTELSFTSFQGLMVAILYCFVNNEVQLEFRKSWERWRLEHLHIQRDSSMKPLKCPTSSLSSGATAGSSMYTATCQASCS

[3] = molecular target: human GIPR (Nluc-GIPR) (human) (UniProt P48546); assay: FRET or BRET; NanoBRET saturation binding on HEK293T cells transiently expressing Nluc-GLP1R or Nluc-GIPR; PBS with 0.1% BSA and 0.01% NanoGlo; daLUXendin added over a range of concentrations, without or with 1 uM GIP and 1 uM Exendin-9 to determine specific binding; fit 'One Site - Specific Binding'
[4] = molecular target: human GLP1R (Nluc-GLP1R) (human) (UniProt P43220); assay: as above
human GLP1R (Nluc-GLP1R) (human), sequence (P43220 24-463): as above

[5] = molecular target: human GIPR (Nluc-GIPR) (human) (UniProt P48546); assay: as above; remark: listed apart in the source
[6] = molecular target: human GLP1R (Nluc-GLP1R) (human) (UniProt P43220); assay: as above; remark: listed apart in the source
mouse islets = assay: Colocalization (Manders' coefficient) of probes in mouse islets; type: cell-based; settings: WT islets live, TzCy3 500nM + LUX645 100nM
Experimental: (§1) Probe labelling was analysed using corrected total cell fluorescence, which is integrated density − (area of selected cell × mean fluorescence of background readings)[52],[53]. Colocalization was determined using Manders’ coefficient, which calculates the proportion of pixels in one channel that also show intensity from both channels. Full width at half maximum was used to analyse labelling patterns at the membrane versus cytoplasm. All analyses were performed in ImageJ (NIH), with brightness and contrast linearly adjusted across the entire image for presentation purposes and applied equally between all states under examination.

mGIPR = molecular target: T1, mGIPR (Mus musculus, UniProt Q0P543); assay: HTRF cAMP assay in transiently transfected AD293 cells; type: cell-based; settings: based upon cAMP assays and binding affinity
T1 construct: expressed in transfected cells; host or cells: AD293 cells, transient transfection (Lipofectamine 2000)
T1 sequence (Q0P543 19-460): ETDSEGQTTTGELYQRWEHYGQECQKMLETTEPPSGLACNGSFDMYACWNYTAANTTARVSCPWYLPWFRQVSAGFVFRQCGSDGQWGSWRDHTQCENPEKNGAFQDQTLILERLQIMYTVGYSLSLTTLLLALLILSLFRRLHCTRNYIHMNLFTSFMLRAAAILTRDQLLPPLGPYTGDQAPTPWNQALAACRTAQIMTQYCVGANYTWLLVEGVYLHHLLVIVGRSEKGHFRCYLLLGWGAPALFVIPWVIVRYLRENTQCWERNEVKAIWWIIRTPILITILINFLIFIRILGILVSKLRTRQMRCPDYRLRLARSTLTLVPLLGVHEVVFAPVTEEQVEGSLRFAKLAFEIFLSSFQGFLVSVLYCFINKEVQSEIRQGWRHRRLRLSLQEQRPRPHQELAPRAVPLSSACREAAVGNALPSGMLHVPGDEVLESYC
Experimental: AD293 cells (RRID:CVCL_9804) were transiently transfected 24 h before the assay in six-well plates with plasmids encoding wild-type hGLP1R, mGLP1R, hGIPR or mGIPR using Lipofectamine 2000. AD293 cells were authenticated at source using STR profiling. Cells were detached and treated with a range of agonist concentrations in serum-free DMEM + 0.1% BSA for 30 min at 37 °C in 96-well plates, followed by the addition of lysis buffer 2 (Cisbio) at a 1:2 ratio. Lysates were further diluted 1:10 to avoid spectral interference from the higher concentrations of fluorescent ligands in the HTRF assay, and the concentration of cAMP was determined after the addition of cAMP Dynamic detection reagents (Cisbio).

GLP1R^KO/KO islets = assay: Probe labelling of GLP1R^KO/KO islets; type: cell-based, mouse; settings: for CTCF values of daLUXendin544: individual values
Experimental: Mice were humanely killed using a schedule-1 method, and the common bile duct was injected with Serva NB8 (1 mg ml^−1) collagenase. The inflated pancreas was dissected, and islets were isolated using Histopaque-1119 and 1083 (Sigma-Aldrich) gradients and cultured at 37 °C, 5% CO2 in RPMI supplemented with 10% FBS (Gibco), 100 units per ml penicillin and 100 μg ml^−1 streptomycin. Islets were used up to 4 days after isolation.
as §1

Nluc–GIPR (hGIPR) = molecular target: T2, Nluc–GIPR (hGIPR) (Homo sapiens, UniProt P48546); assay: NanoBRET saturation binding assay, HEK293T cells
T2 construct: expressed in transfected cells; host or cells: HEK293T cells, transient expression
T2 sequence (P48546 22-466): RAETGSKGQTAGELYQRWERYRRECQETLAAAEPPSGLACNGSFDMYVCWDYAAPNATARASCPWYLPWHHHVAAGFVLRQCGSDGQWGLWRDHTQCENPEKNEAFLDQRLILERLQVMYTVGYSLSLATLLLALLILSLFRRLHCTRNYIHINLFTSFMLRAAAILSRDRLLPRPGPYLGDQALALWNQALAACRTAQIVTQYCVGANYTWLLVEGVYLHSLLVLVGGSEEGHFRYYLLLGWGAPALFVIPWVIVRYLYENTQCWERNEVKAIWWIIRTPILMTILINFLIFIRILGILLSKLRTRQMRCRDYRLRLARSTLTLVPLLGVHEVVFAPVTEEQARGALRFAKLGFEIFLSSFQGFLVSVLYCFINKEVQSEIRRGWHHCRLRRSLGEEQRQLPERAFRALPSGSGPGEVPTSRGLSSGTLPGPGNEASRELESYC
Experimental: (§2) HEK293T cells (RRID:CVCL_0063) were cultured in DMEM/F12 GlutaMAX (ThermoFisher), supplemented with 10% FBS and 1% antibiotic-antimycotic solution and cultured at 37 °C, 5% CO2. HEK293T cells were authenticated at source using STR profiling. […] Media was then removed and the cells were incubated in PBS supplemented with 0.1% BSA and 0.01% NanoGlo (Promega). […] Plates were read using a PheraSTAR microplate reader, using the NanoBRET filter module. BRET ratios (λacceptor/λdonor) were calculated, and saturation data fit using the ‘One Site – Specific Binding’ equation of GraphPad Prism 10. Competition binding was fit using the ‘One Site – Fit Ki’ equation.

Nluc–GLP1R (hGLP1R) = molecular target: T3, Nluc–GLP1R (hGLP1R) (Homo sapiens, UniProt P43220); assay: NanoBRET saturation binding assay, HEK293T cells
T3 construct: expressed in transfected cells; host or cells: HEK293T cells, transient expression
T3 sequence (P43220 24-463): as the sequence (P43220 24-463) above
Experimental: as §2

Kd [1]: 6.46 nM
Kd [2]: 1.38 nM
Kd [3]: 12.2 nM and 10.7 nM and 14.1 nM
Kd [4]: 2.14 nM and 1.77 nM and 3.89 nM
Kd [5]: 6.46 nM
Kd [6]: 1.38 nM
Molecule: daLUXendin660+ (peptide)

Molecule: CC[C@H](C)[C@H](NC(=O)[C@H](CC(C)C)NC(=O)[C@H](Cc1c[nH]c2ccccc12)NC(=O)[C@H](CCC(N)=O)NC(=O)[C@@H](NC(=O)[C@H](Cc1ccccc1)NC(=O)[C@H](C)NC(=O)[C@H](CCCCN)NC(=O)[C@H](CCC(N)=O)NC(=O)[C@H](C)NC(=O)[C@@H](NC(=O)[C@H](CCCCN)NC(=O)[C@H](CC(=O)O)NC(=O)[C@H](CC(C)C)NC(=O)C(C)(C)NC(=O)[C@@H](NC(=O)[C@H](CO)NC(=O)[C@H](Cc1ccc(O)cc1)NC(=O)[C@H](CC(=O)O)NC(=O)[C@H](CO)NC(=O)[C@@H](NC(=O)[C@H](Cc1ccccc1)NC(=O)[C@@H](NC(=O)CNC(=O)[C@H](CCC(=O)O)NC(=O)C(C)(C)NC(=O)[C@@H](N)Cc1ccc(O)cc1)[C@@H](C)O)[C@@H](C)O)[C@@H](C)CC)[C@@H](C)CC)C(C)C)C(=O)N[C@@H](C)C(=O)NCC(=O)NCC(=O)N1CCC[C@H]1C(=O)N[C@@H](CO)C(=O)N[C@@H](CO)C(=O)NCC(=O)N[C@@H](C)C(=O)N1CCC[C@H]1C(=O)N1CCC[C@H]1C(=O)N1CCC[C@H]1C(=O)N[C@@H](CSC1CC(=O)N(CCNC(=O)CCCCC[N+]2=C(C=CC=C3N(C)c4ccccc4C3(C)C)C(C)(C)c3ccccc32)C1=O)C(N)=O (stereo partly drawn) [daLUXendin544] (H-Y[Aib]EGTFTSDYSI[Aib]LDKIAQKAFVQWLIAGGPSSGAPPPC(X2)-NH2)
M1, daLUXendin544 vs LUXendin645 (mouse islets; image 1): 0.917
M2, daLUXendin544 vs LUXendin645 (mouse islets; image 1): 0.994
Manders' R, daLUXendin544 vs LUXendin645 (mouse islets; image 1): 0.852
Pearson's, daLUXendin544 vs LUXendin645 (mouse islets; image 1): 0.83
M1, daLUXendin544 vs LUXendin645 (mouse islets; image 2): 0.927
M2, daLUXendin544 vs LUXendin645 (mouse islets; image 2): 0.996
Manders' R, daLUXendin544 vs LUXendin645 (mouse islets; image 2): 0.744
Pearson's, daLUXendin544 vs LUXendin645 (mouse islets; image 2): 0.679
M1, daLUXendin544 vs LUXendin645 (mouse islets; image 3): 0.956
M2, daLUXendin544 vs LUXendin645 (mouse islets; image 3): 0.995
Manders' R, daLUXendin544 vs LUXendin645 (mouse islets; image 3): 0.727
Pearson's, daLUXendin544 vs LUXendin645 (mouse islets; image 3): 0.616
selectivity for mouse GLP1R over GIPR compared to tirzepatide (mGIPR): approximately fourfold less selectivity
CTCF values of daLUXendin544 (GLP1R^KO/KO islets; GLP1R-/- + GIP): 466750 and 425691 and 412346 and 398972 and 803260 and 1574894 and 1388527 and 1122278 and 848564 and 323100 and 555998 and 554147 and 545690
CTCF values of daLUXendin544 (GLP1R^KO/KO islets; GLP1R-/-): 1138974 and 1525024 and 2200632 and 868278 and 1499758 and 2095767 and 1136530 and 1464030 and 649874 and 1541507 and 604319 and 865421
CTCF values of daLUXendin544 (GLP1R^KO/KO islets; GLP1RWT/WT): 3434876 and 3087793 and 4777725 and 2187512 and 1805461 and 1906480 and 1520223 and 2186271 and 2694391 and 5360897 and 5342379 and 1938584 and 1738950
reduction of labelling in GLP1R^KO/KO islets (GLP1R^KO/KO islets; versus wild-type islets): ~ 50%

Kd [1]: 8.7 nM
Kd [2]: 2.18 nM
Kd [3]: 10.2 nM and 4.22 nM and 7.41 nM
Molecule: daLUXendin660 (peptide)

Molecule: CC[C@H](C)[C@H](NC(=O)[C@H](CC(C)C)NC(=O)[C@H](Cc1c[nH]c2ccccc12)NC(=O)[C@H](CCC(N)=O)NC(=O)[C@@H](NC(=O)[C@H](Cc1ccccc1)NC(=O)[C@H](C)NC(=O)[C@H](CCCCNC(=O)COCCOCCNC(=O)COCCOCCNC(=O)CC[C@H](NC(=O)CCCCCCCCCCCCCCCCCCC(=O)O)C(=O)O)NC(=O)[C@H](CCC(N)=O)NC(=O)[C@H](C)NC(=O)[C@@H](NC(=O)[C@H](CCCCN)NC(=O)[C@H](CC(=O)O)NC(=O)[C@H](CC(C)C)NC(=O)C(C)(C)NC(=O)[C@@H](NC(=O)[C@H](CO)NC(=O)[C@H](Cc1ccc(O)cc1)NC(=O)[C@H](CC(=O)O)NC(=O)[C@H](CO)NC(=O)[C@@H](NC(=O)[C@H](Cc1ccccc1)NC(=O)[C@@H](NC(=O)CNC(=O)[C@H](CCC(=O)O)NC(=O)C(C)(C)NC(=O)[C@@H](N)Cc1ccc(O)cc1)[C@@H](C)O)[C@@H](C)O)[C@@H](C)CC)[C@@H](C)CC)C(C)C)C(=O)N[C@@H](C)C(=O)NCC(=O)NCC(=O)N1CCC[C@H]1C(=O)N[C@@H](CO)C(=O)N[C@@H](CO)C(=O)NCC(=O)N[C@@H](C)C(=O)N1CCC[C@H]1C(=O)N1CCC[C@H]1C(=O)N1CCC[C@H]1C(=O)N[C@@H](CSC1CC(=O)N(CCNC(=O)CCCCC[N+]2=C(C=CC=CC=C3N(C)c4ccccc4C3(C)C)C(C)(C)c3ccccc32)C1=O)C(N)=O (stereo partly drawn) [daLUXendin660+] (H-Y[Aib]EGTFTSDYSI[Aib]LDKIAQK([AEEA-AEEA-γGlu-C20 diacid])AFVQWLIAGGPSSGAPPPC(X1)-NH2)
Bmax best-fit (nM), hGIPR (Nluc–GIPR (hGIPR); Nluc-tagged hGIPR, NanoBRET saturation, n = 3 independent repeats): 0.02314 nM
Bmax (Nluc–GIPR (hGIPR); hGIPR, nonlin fit, One site -- Specific binding, best-fit value of pooled data): 0.02314
Bmax best-fit (nM), hGLP1R (Nluc–GLP1R (hGLP1R); Nluc-tagged hGLP1R, NanoBRET saturation, n = 3 independent repeats): 0.03361 nM
Bmax (Nluc–GLP1R (hGLP1R); hGLP1R, nonlin fit, One site -- Specific binding, best-fit value of pooled data): 0.03361
